Measurements published in ChEMBL document CHEMBL1146699, “P3 cap modified Phe*-Ala series BACE inhibitors” (Bioorg Med Chem Lett, 2004).
pIC50: −log10 of the molar value.

Legend:
Beta-secretase 1 = Beta-secretase 1 (Homo sapiens, UniProt P56817); experiment: In vitro inhibitory activity against Beta-secretase 1 in human HEK293 cells; format: cell-based
HEK293 [1] = experiment: Inhibitory activity against beta-amyloid (Abeta) peptide in human HEK293/APP751swe cells; Range 0.97-1.35; format: functional, cell-based
HEK293 [2] = experiment: Inhibitory activity against beta-amyloid (Abeta) peptide in human HEK293/APP751swe cells; format: functional, cell-based
[3] = molecular target: T1, Beta-secretase 2 (Homo sapiens) (UniProt Q9Y5Z0); experiment: Selectivity tested against Beta-secretase 2 (BACE) in human
T1 sequence (whole entry): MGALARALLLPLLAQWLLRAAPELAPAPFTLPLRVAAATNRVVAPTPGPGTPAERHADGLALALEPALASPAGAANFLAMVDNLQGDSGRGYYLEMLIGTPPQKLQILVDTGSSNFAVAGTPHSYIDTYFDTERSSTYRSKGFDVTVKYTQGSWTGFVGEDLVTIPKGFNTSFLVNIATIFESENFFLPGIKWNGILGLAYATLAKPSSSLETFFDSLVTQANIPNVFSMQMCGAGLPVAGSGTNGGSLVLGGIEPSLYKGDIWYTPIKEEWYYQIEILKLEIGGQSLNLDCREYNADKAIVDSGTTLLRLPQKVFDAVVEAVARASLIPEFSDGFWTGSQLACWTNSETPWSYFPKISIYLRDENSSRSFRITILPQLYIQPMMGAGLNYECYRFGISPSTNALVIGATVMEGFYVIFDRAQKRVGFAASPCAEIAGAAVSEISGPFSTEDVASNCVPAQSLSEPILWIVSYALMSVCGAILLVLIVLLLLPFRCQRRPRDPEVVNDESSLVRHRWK

HEK293 [4] = experiment: Inhibitory activity against beta-amyloid (Abeta) peptide in human HEK293/APP751swe cells; Range 4.8-7.5; format: functional, cell-based

Beta-secretase 1, sequence (P56817 whole entry): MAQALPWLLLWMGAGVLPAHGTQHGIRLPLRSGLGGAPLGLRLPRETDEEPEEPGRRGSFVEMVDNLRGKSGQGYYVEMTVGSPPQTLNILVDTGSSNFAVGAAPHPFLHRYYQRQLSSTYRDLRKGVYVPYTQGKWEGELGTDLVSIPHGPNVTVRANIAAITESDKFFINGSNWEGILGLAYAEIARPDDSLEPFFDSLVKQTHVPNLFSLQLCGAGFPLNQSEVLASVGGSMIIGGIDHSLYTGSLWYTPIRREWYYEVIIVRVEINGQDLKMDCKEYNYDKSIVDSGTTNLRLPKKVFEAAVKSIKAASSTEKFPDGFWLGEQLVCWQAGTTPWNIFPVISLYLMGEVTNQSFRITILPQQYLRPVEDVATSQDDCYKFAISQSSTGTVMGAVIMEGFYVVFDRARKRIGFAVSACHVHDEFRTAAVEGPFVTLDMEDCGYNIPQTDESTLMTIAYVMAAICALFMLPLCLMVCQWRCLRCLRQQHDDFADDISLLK

| pIC50 (Beta-secretase 1) | Selectivity [3] | SMILES | pIC50 (HEK293 [1]) | pIC50 (HEK293 [2]) | pIC50 (HEK293 [4]) |
| --- | --- | --- | --- | --- | --- |
| 5.35 |  | CC(C[C@H](O)[C@H](Cc1ccccc1)NC(=O)[C@H](COC(C)(C)C)NC(=O)[C@@H](O)C(C)C)C(=O)N[C@H](C(=O)NCc1ccncc1)C(C)C (single isomer, unassigned) |  |  |  |
| 7.46 |  | CC[C@H](C)[C@H](O)C(=O)N[C@@H](C)C(=O)N[C@@H](Cc1ccccc1)[C@@H](O)CC(C)C(=O)N[C@H](C(=O)NCc1ccncc1)C(C)C (single isomer, unassigned) |  | 5.91 |  |
| 6.75 |  | CC[C@H](C)[C@H](O)C(=O)N[C@@H](CC(C)C)C(=O)N[C@@H](Cc1ccccc1)[C@@H](O)CC(CC(C)C)C(=O)N[C@H](C(=O)NCc1ccncc1)C(C)C (single isomer, unassigned) |  | 5.43 |  |
| 7.35 |  | CC[C@H](C)[C@H](O)C(=O)N[C@@H](CCC(F)F)C(=O)N[C@@H](Cc1ccccc1)[C@@H](O)CC(CCC(F)F)C(=O)N[C@H](C(=O)NCc1ccncc1)C(C)C (single isomer, unassigned) |  | 5.97 |  |
| 6.26 |  | CCC[C@H](NC(=O)[C@@H](O)C(C)C)C(=O)N[C@@H](Cc1ccccc1)[C@@H](O)CC(C)C(=O)N[C@H](C(=O)NCc1ccncc1)C(C)C (single isomer, unassigned) |  | 4.52 |  |
| 5.33 |  | CC(C[C@H](O)[C@H](Cc1ccccc1)NC(=O)[C@@H](NC(=O)[C@@H](O)C(C)C)C(C)C)C(=O)N[C@H](C(=O)NCc1ccncc1)C(C)C (single isomer, unassigned) |  |  |  |
| 5.76 |  | CC(C)CC(=O)N[C@@H](C)C(=O)N[C@@H](Cc1ccccc1)[C@@H](O)CC(C)C(=O)N[C@H](C(=O)NCc1ccncc1)C(C)C (single isomer, unassigned) |  | < 4.00 |  |
| 6.64 |  | CC(C)C[C@H](O)C(=O)N[C@@H](C)C(=O)N[C@@H](Cc1ccccc1)[C@@H](O)CC(C)C(=O)N[C@H](C(=O)NCc1ccncc1)C(C)C (single isomer, unassigned) |  | 4.77 |  |

Further lines, the compound ahead of its results:

| SMILES | pIC50 (Beta-secretase 1) | Selectivity [3] | pIC50 (HEK293 [1]) | pIC50 (HEK293 [2]) | pIC50 (HEK293 [4]) |
| --- | --- | --- | --- | --- | --- |
| CC[C@H](C)[C@H](O)C(=O)N[C@@H](CCCF)C(=O)N[C@@H](Cc1ccccc1)[C@@H](O)CC(CCCF)C(=O)N[C@H](C(=O)NCc1ccncc1)C(C)C (single isomer, unassigned) | 7.17 |  | > 5.87 |  |  |
| CSCC[C@H](NC(=O)[C@@H](O)C(C)C)C(=O)N[C@@H](Cc1ccccc1)[C@@H](O)CC(C)C(=O)N[C@H](C(=O)NCc1ccncc1)C(C)C (single isomer, unassigned) | 6.46 |  |  | 4.60 |  |
| CC(C[C@H](O)[C@H](Cc1ccccc1)NC(=O)[C@H](C)NC(=O)[C@@H](N)C(C)C)C(=O)NC(C(=O)NCc1ccncc1)C(C)C (single isomer, unassigned) | 6.72 | 0.52 |  | 4.42 |  |
| CC(C[C@H](O)[C@H](Cc1ccccc1)NC(=O)[C@H](C)NC(=O)[C@@H](O)C(C)C)C(=O)N[C@H](C(=O)NCc1ccccc1)C(C)C (single isomer, unassigned) | 7.43 |  |  | 5.20 |  |
| CC(C)[C@H](O)C(=O)N[C@@H](C)C(=O)N[C@@H](Cc1ccccc1)[C@@H](O)C[C@@H](C)C(=O)N[C@H](C(=O)NCc1ccncc1)C(C)C | 6.89 |  |  |  | > 5.12 |
| CC(C[C@H](O)[C@H](Cc1ccccc1)NC(=O)[C@H](C)NC(=O)[C@@H](O)CC(F)(F)F)C(=O)N[C@H](C(=O)NCc1ccncc1)C(C)C (single isomer, unassigned) | 6.66 |  |  | 5.41 |  |
| CC(C[C@H](O)[C@H](Cc1ccccc1)NC(=O)[C@H](CO)NC(=O)[C@@H](O)C(C)C)C(=O)N[C@H](C(=O)NCc1ccncc1)C(C)C (single isomer, unassigned) | 6.46 |  |  | 4.70 |  |
| CCC(C[C@H](O)[C@H](Cc1ccccc1)NC(=O)[C@H](C)NC(=O)[C@@H](O)C(C)C)C(=O)N[C@H](C(=O)N[C@@H](C)c1ccccc1)C(C)C (single isomer, unassigned) | 7.22 |  |  | 4.70 |  |
| CC[C@H](C)[C@H](O)C(=O)N[C@@H](CC(F)F)C(=O)N[C@@H](Cc1ccccc1)[C@@H](O)C[C@@H](CC(F)F)C(=O)N[C@H](C(=O)NCc1ccncc1)C(C)C | 5.50 |  |  | < 4.43 |  |
| CCC(C[C@H](O)[C@H](Cc1ccccc1)NC(=O)[C@H](C)NC(=O)[C@@H](O)C(C)C)C(=O)N[C@H](C(=O)N[C@H](C)c1ccccc1)C(C)C (single isomer, unassigned) | 7.00 |  |  | 4.87 |  |
| CC(C[C@H](O)[C@H](Cc1ccccc1)NC(=O)[C@H](C)NC(=O)[C@@H](F)C(C)C)C(=O)N[C@H](C(=O)NCc1ccncc1)C(C)C (single isomer, unassigned) | 5.95 |  |  | 4.31 |  |
